Data: publication PMC10281575, “PfCRT mutations conferring piperaquine resistance in falciparum malaria shape the kinetics of quinoline drug binding and transport” (PLOS Pathogens, 2023)
Several values for one entry are separate records, joined by “and”; a condition that tells them apart may be missing. Identical values can stand only once.

Target: T1, PfCRT^Dd2 (Plasmodium falciparum, UniProt Q8IBZ9, A220S/I356T/K76T/M74I/N326S/N75E/Q271E/R371I)
T1 sequence (Q8IBZ9 1-424 M74I/N75E/K76T/A220S/Q271E/N326S/I356T/R371I): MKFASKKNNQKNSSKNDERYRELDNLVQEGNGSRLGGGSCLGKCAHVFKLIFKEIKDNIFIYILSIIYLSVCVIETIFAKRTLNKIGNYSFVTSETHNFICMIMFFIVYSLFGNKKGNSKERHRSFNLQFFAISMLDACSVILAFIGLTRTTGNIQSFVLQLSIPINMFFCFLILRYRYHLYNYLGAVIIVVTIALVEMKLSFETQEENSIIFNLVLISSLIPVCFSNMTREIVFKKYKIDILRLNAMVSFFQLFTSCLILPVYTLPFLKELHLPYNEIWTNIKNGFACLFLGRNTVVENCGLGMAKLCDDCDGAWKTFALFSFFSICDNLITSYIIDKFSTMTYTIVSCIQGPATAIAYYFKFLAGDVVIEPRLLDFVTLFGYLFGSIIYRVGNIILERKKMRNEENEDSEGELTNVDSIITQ
Test: Competition plot (Vtotal versus proportion of PPQ in CQ/PPQ mixtures), PfCRT^Dd2
Format: cell-based
Parameters: expressed in transfected cells; host or cells: Xenopus laevis oocytes injected with in vitro transcribed RNA (pSP64T)
Conditions: for competition plot result (binding sites): CQ/PPQ mixtures, curve with a maximum
Description: To test this hypothesis, we performed competition plot experiments, in which the enzyme or carrier is exposed to substrate mixtures that give the same transport rate for different substrates. The experiment is performed with substrate A labeled and then repeated with substrate B labeled.
The competition plot tests whether two substrates bind to the same site or distinct sites on an enzyme or transporter. A competitive reaction would yield data points that lie on a horizontal line, whereas allosteric interactions would reveal a curved relationship. […] Vtotal was subsequently analyzed as a function of the proportion of PPQ in the mixture (P). For more details see Materials and Methods. The mean ± SEM of at least 3 independent biological replicates are shown.
The competition plot was performed as described elsewhere. […] These corresponded to values of P equal to 0, 0.25, 0.5, 0.75, 0.9 and 1. A plot of Vtotal as a function of P yielded the competition plots. If both substrates bind to the same site, then a constant Vtotal is expected across all P values (e.g. data lies on a horizontal line). If the substrates bind to different sites, and they inhibit each other’s transport, it is expected that the curve is concave with either a minimum or a maximum.

[1] = CQ/PPQ mixture, P = 0.25, single replicates
[2] = CQ/PPQ mixture, P = 0.5, single replicates
[3] = CQ/PPQ mixture, P = 0.75, single replicates
[4] = CQ/PPQ mixture, P = 0.9, single replicates

Row | Structure (SMILES) | PfCRTDd2-mediated CQ transport P = 0 (CQ/PPQ mixture, P = 0, single replicates) | PfCRTDd2-mediated CQ transport P = 0.25 [1] | PfCRTDd2-mediated CQ transport P = 0.5 [2] | PfCRTDd2-mediated CQ transport P = 0.75 [3] | PfCRTDd2-mediated CQ transport P = 0.9 [4] | competition plot result (binding sites) | PfCRTDd2-mediated PPQ transport P = 0.25 [1] | PfCRTDd2-mediated PPQ transport P = 0.5 [2] | PfCRTDd2-mediated PPQ transport P = 0.75 [3] | PfCRTDd2-mediated PPQ transport P = 0.9 [4] | PfCRTDd2-mediated PPQ transport P = 1 (CQ/PPQ mixture, P = 1, single replicates)
1 | CCN(CC)CCCC(C)Nc1ccnc2cc(Cl)ccc12 (stereo not drawn) [CQ, chloroquine] | 20.79 pmol oocyte-1 h-1 and 22.58 pmol oocyte-1 h-1 and 19.58 pmol oocyte-1 h-1 and 16.43 pmol oocyte-1 h-1 | 18.03 pmol oocyte-1 h-1 and 18.73 pmol oocyte-1 h-1 and 18.01 pmol oocyte-1 h-1 | 16.36 pmol oocyte-1 h-1 and 12.29 pmol oocyte-1 h-1 | 7.91 pmol oocyte-1 h-1 and 7.73 pmol oocyte-1 h-1 and 11.16 pmol oocyte-1 h-1 and 8.67 pmol oocyte-1 h-1 | 4.33 pmol oocyte-1 h-1 and 3.12 pmol oocyte-1 h-1 and 4.83 pmol oocyte-1 h-1 | bind at different sites | – | – | – | – | –
2 | Clc1ccc2c(N3CCN(CCCN4CCN(c5ccnc6cc(Cl)ccc56)CC4)CC3)ccnc2c1 [PPQ, piperaquine] | – | – | – | – | – | bind at different sites | 3.23 pmol oocyte-1 h-1 and 2.01 pmol oocyte-1 h-1 and 4.17 pmol oocyte-1 h-1 | 8.67 pmol oocyte-1 h-1 and 8.62 pmol oocyte-1 h-1 and 9.88 pmol oocyte-1 h-1 | 14.14 pmol oocyte-1 h-1 and 12.26 pmol oocyte-1 h-1 and 14.54 pmol oocyte-1 h-1 | 15.27 pmol oocyte-1 h-1 and 15.64 pmol oocyte-1 h-1 and 17.36 pmol oocyte-1 h-1 and 20.19 pmol oocyte-1 h-1 | 17.53 pmol oocyte-1 h-1 and 18.98 pmol oocyte-1 h-1 and 22.10 pmol oocyte-1 h-1
